In ChEMBL document CHEMBL3867433, “Synthesis and antimicrobial activity of styryl/pyrrolyl/pyrazolyl sulfonylmethyl-1,3,4-oxadiazolyl amines and styryl/pyrrolyl/pyrazolyl sulfonylmethyl-1,3,4-thiadiazolyl amines” (2016):

What was measured:
Format in all cases: functional
Bacillus subtilis [1] = test: Antibacterial activity against Bacillus subtilis at 100 ug/well after 24 hrs by agar well diffusion method; settings: read-out: DIZ
Pseudomonas aeruginosa [2] = test: Antibacterial activity against Pseudomonas aeruginosa at 50 ug/well after 24 hrs by agar well diffusion method; settings: read-out: DIZ
[3] = Antifungal activity against Penicillium chrysogenum assessed as inhibition of spore germination at 12.5 ug/well after 48 hrs by agar well diffusion method
Bacillus subtilis [4] = test: Antibacterial activity against Bacillus subtilis at 50 ug/well after 24 hrs by agar well diffusion method; settings: read-out: DIZ
Klebsiella pneumoniae [5] = test: Antibacterial activity against Klebsiella pneumoniae at 25 ug/well after 24 hrs by agar well diffusion method; settings: read-out: DIZ
Bacillus subtilis [6] = test: Antibacterial activity against Bacillus subtilis at 25 ug/well after 24 hrs by agar well diffusion method; settings: read-out: DIZ
Bacillus subtilis [7] = test: Antibacterial activity against Bacillus subtilis at 12.5 ug/well after 24 hrs by agar well diffusion method; settings: read-out: DIZ
[8] = Antifungal activity against Penicillium chrysogenum assessed as inhibition of spore germination at 50 ug/well after 48 hrs by agar well diffusion method
Staphylococcus aureus [9] = test: Antibacterial activity against Staphylococcus aureus at 50 ug/well after 24 hrs by agar well diffusion method; settings: read-out: DIZ
Aspergillus niger [10] = test: Antifungal activity against Aspergillus niger assessed as inhibition of spore germination at 12.5 ug/well after 48 hrs by agar well diffusion method; settings: read-out: DIZ
Klebsiella pneumoniae [11] = test: Antibacterial activity against Klebsiella pneumoniae at 100 ug/well after 24 hrs by agar well diffusion method; settings: read-out: DIZ
Pseudomonas aeruginosa [12] = test: Antibacterial activity against Pseudomonas aeruginosa at 100 ug/well after 24 hrs by agar well diffusion method; settings: read-out: DIZ
Pseudomonas aeruginosa [13] = test: Antibacterial activity against Pseudomonas aeruginosa at 25 ug/well after 24 hrs by agar well diffusion method; settings: read-out: DIZ
Klebsiella pneumoniae [14] = test: Antibacterial activity against Klebsiella pneumoniae at 12.5 ug/well after 24 hrs by agar well diffusion method; settings: read-out: DIZ
Pseudomonas aeruginosa [15] = test: Antibacterial activity against Pseudomonas aeruginosa at 12.5 ug/well after 24 hrs by agar well diffusion method; settings: read-out: DIZ
Aspergillus niger [16] = test: Antifungal activity against Aspergillus niger assessed as inhibition of spore germination at 25 ug/well after 48 hrs by agar well diffusion method; settings: read-out: DIZ
[17] = Antifungal activity against Penicillium chrysogenum assessed as inhibition of spore germination at 25 ug/well after 48 hrs by agar well diffusion method
Staphylococcus aureus [18] = test: Antibacterial activity against Staphylococcus aureus at 12.5 ug/well after 24 hrs by agar well diffusion method; settings: read-out: DIZ
Aspergillus niger [19] = test: Antifungal activity against Aspergillus niger assessed as inhibition of spore germination at 100 ug/well after 48 hrs by agar well diffusion method; settings: read-out: DIZ
Staphylococcus aureus [20] = test: Antibacterial activity against Staphylococcus aureus at 100 ug/well after 24 hrs by agar well diffusion method; settings: read-out: DIZ
Klebsiella pneumoniae [21] = test: Antibacterial activity against Klebsiella pneumoniae at 50 ug/well after 24 hrs by agar well diffusion method; settings: read-out: DIZ
[22] = Antifungal activity against Penicillium chrysogenum assessed as inhibition of spore germination at 100 ug/well after 48 hrs by agar well diffusion method
Aspergillus niger [23] = test: Antifungal activity against Aspergillus niger assessed as inhibition of spore germination at 50 ug/well after 48 hrs by agar well diffusion method; settings: read-out: DIZ
Staphylococcus aureus [24] = test: Antibacterial activity against Staphylococcus aureus at 25 ug/well after 24 hrs by agar well diffusion method; settings: read-out: DIZ

Structure (SMILES) | zone of inhibition at 100 µg/disc (Bacillus subtilis [1]) [mm] | zone of inhibition at 50 µg/disc (Pseudomonas aeruginosa [2]) [mm] | inhibition zone (IZ) [3] [mm] | zone of inhibition at 50 µg/disc (Bacillus subtilis [4]) [mm] | zone of inhibition at 25 µg/disc (Klebsiella pneumoniae [5]) [mm] | zone of inhibition at 25 µg/disc (Bacillus subtilis [6]) [mm] | zone of inhibition at 12.5 µg/disc (Bacillus subtilis [7]) [mm] | inhibition zone (IZ) [8] [mm] | zone of inhibition at 50 µg/disc (Staphylococcus aureus [9]) [mm] | zone of inhibition at 100 µg/disc (Klebsiella pneumoniae [11]) [mm] | zone of inhibition at 100 µg/disc (Pseudomonas aeruginosa [12]) [mm] | zone of inhibition at 25 µg/disc (Pseudomonas aeruginosa [13]) [mm] | zone of inhibition at 12.5 µg/disc (Pseudomonas aeruginosa [15]) [mm] | zone of inhibition at 25 µg/disc (Aspergillus niger [16]) [mm] | inhibition zone (IZ) [17] [mm] | zone of inhibition at 100 µg/disc (Aspergillus niger [19]) [mm] | zone of inhibition at 100 µg/disc (Staphylococcus aureus [20]) [mm] | zone of inhibition at 50 µg/disc (Klebsiella pneumoniae [21]) [mm] | inhibition zone (IZ) [22] [mm] | zone of inhibition at 50 µg/disc (Aspergillus niger [23]) [mm] | further results
Nc1nnc(CS(=O)(=O)c2n[nH]cc2-c2ccccc2)s1 | 29 | 25 | 30 | 27 | 28 | 26 | 25 | 34 | 22 | 32 | 27 | 23 | 22 | 25 | 32 | 29 | 24 | 30 | 36 | 27 | zone of inhibition at 12.5 µg/disc (Aspergillus niger [10]): 23 mm; zone of inhibition at 12.5 µg/disc (Klebsiella pneumoniae [14]): 26 mm; zone of inhibition at 12.5 µg/disc (Staphylococcus aureus [18]): 20 mm; zone of inhibition at 25 µg/disc (Staphylococcus aureus [24]): 21 mm
Cc1ccc(-c2c[nH]cc2S(=O)(=O)Cc2nnc(N)s2)cc1 | 22 | 21 | 22 | 20 | 22 | 19 | 18 | 26 | 19 | 26 | 23 | 19 | 17 | 11 | 24 | 15 | 22 | 24 | 28 | 13 | zone of inhibition at 12.5 µg/disc (Aspergillus niger [10]): 9 mm; zone of inhibition at 12.5 µg/disc (Klebsiella pneumoniae [14]): 20 mm; zone of inhibition at 12.5 µg/disc (Staphylococcus aureus [18]): 15 mm; zone of inhibition at 25 µg/disc (Staphylococcus aureus [24]): 17 mm
Nc1nnc(CS(=O)(=O)c2c[nH]cc2-c2ccccc2)o1 | 12 | 12 | 11 | – | – | – | – | 14 | – | 13 | 14 | 10 | 8 | 8 | 12 | 12 | 11 | 11 | 16 | 10 | –
Nc1nnc(CS(=O)(=O)C2=NNCC2c2ccccc2)s1 (stereo not given) | – | – | – | – | – | – | – | – | – | – | – | – | – | – | – | 9 | – | – | 12 | 7 | –
Nc1nnc(CS(=O)(=O)/C=C\c2ccc(Cl)cc2)o1 | 17 | 19 | 15 | 15 | 18 | 14 | 13 | 18 | 16 | 22 | 21 | 17 | 15 | 15 | 16 | 19 | 20 | 20 | 20 | 17 | zone of inhibition at 12.5 µg/disc (Aspergillus niger [10]): 13 mm; zone of inhibition at 12.5 µg/disc (Klebsiella pneumoniae [14]): 16 mm; zone of inhibition at 12.5 µg/disc (Staphylococcus aureus [18]): 12 mm; zone of inhibition at 25 µg/disc (Staphylococcus aureus [24]): 14 mm
Nc1nnc(CS(=O)(=O)C2=NNCC2c2ccc(Cl)cc2)s1 (stereo not given) | – | – | – | – | – | – | – | 10 | – | – | – | – | – | – | – | 11 | – | – | 13 | 10 | –
Cc1ccc(-c2c[nH]nc2S(=O)(=O)Cc2nnc(N)o2)cc1 | 11 | 12 | – | 9 | – | 7 | 6 | 11 | – | 14 | 14 | 10 | 9 | 8 | – | 10 | 12 | 12 | 14 | 10 | –
Nc1nnc(CS(=O)(=O)c2n[nH]cc2-c2ccc(Cl)cc2)o1 | 13 | 16 | 12 | 12 | 13 | 9 | 8 | 15 | 12 | 17 | 18 | 14 | 12 | 9 | 13 | 13 | 15 | 15 | 17 | 11 | zone of inhibition at 12.5 µg/disc (Klebsiella pneumoniae [14]): 11 mm; zone of inhibition at 12.5 µg/disc (Staphylococcus aureus [18]): 8 mm; zone of inhibition at 25 µg/disc (Staphylococcus aureus [24]): 10 mm
Cc1ccc(/C=C\S(=O)(=O)Cc2nnc(N)o2)cc1 | 14 | 16 | 10 | 11 | 13 | 9 | 8 | 14 | 12 | 17 | 18 | 14 | 12 | 10 | 12 | 13 | 14 | 15 | 16 | 11 | zone of inhibition at 12.5 µg/disc (Aspergillus niger [10]): 8 mm; zone of inhibition at 12.5 µg/disc (Klebsiella pneumoniae [14]): 11 mm
Cc1ccc(C2CNN=C2S(=O)(=O)Cc2nnc(N)s2)cc1 (stereo not given) | – | – | – | – | – | – | – | – | – | – | – | – | – | – | – | 8 | – | – | 11 | 4 | –
Nc1nnc(CS(=O)(=O)c2n[nH]cc2-c2ccccc2)o1 | 15 | 15 | – | 11 | 12 | 9 | 7 | 14 | 10 | 16 | 17 | 13 | 11 | 9 | 12 | 13 | 14 | 14 | 16 | 11 | zone of inhibition at 12.5 µg/disc (Klebsiella pneumoniae [14]): 10 mm
Cc1ccc(-c2c[nH]cc2S(=O)(=O)Cc2nnc(N)o2)cc1 | 10 | 10 | 8 | – | – | – | – | 12 | – | 12 | 11 | – | – | – | 10 | 9 | 10 | – | 14 | 7 | –
Nc1nnc(CS(=O)(=O)c2c[nH]cc2-c2ccc(Cl)cc2)o1 | 13 | 13 | 12 | 11 | 10 | – | – | 16 | 9 | 14 | 15 | 11 | 9 | 10 | 14 | 14 | 12 | 12 | 18 | 9 | zone of inhibition at 12.5 µg/disc (Klebsiella pneumoniae [14]): 8 mm; zone of inhibition at 12.5 µg/disc (Staphylococcus aureus [18]): 7 mm; zone of inhibition at 25 µg/disc (Staphylococcus aureus [24]): 8 mm
